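Five concentrations, 48 hours, 96-well plates. Here, GI50 denotes the concentration required for 50% inhibition of growth. The concentration for full growth arrest is given as TGI.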
What was measured:
Experiment in all cases: NCI-60 cell line screen, 48 h
OVCAR-4 ovarian = system: OVCAR-4 ovarian
SF-295 CNS = system: SF-295 CNS
SK-OV-3 ovarian = system: SK-OV-3 ovarian
HCC-2998 colon = system: HCC-2998 colon
OVCAR-8 ovarian = system: OVCAR-8 ovarian
EKVX NSCLC = system: EKVX NSCLC
MDA-MB-435 = system: MDA-MB-435
NCI-H226 lung = system: NCI-H226 lung
SNB-75 CNS = system: SNB-75 CNS
HT29 colon = system: HT29 colon

Compound | TGI (OVCAR-4 ovarian) [µM] | TGI (SF-295 CNS) [µM] | TGI (SK-OV-3 ovarian) [µM] | TGI (HCC-2998 colon) [µM] | TGI (OVCAR-8 ovarian) [µM] | TGI (EKVX NSCLC) [µM] | TGI (MDA-MB-435) [µM] | TGI (NCI-H226 lung) [µM] | TGI (SNB-75 CNS) [µM] | TGI (HT29 colon) [µM] | GI50 (OVCAR-4 ovarian) [nM] | GI50 (SF-295 CNS) [nM] | GI50 (SK-OV-3 ovarian) [nM] | GI50 (HCC-2998 colon) [nM] | GI50 (OVCAR-8 ovarian) [nM] | GI50 (EKVX NSCLC) [nM] | GI50 (MDA-MB-435) [nM] | GI50 (NCI-H226 lung) [nM] | GI50 (SNB-75 CNS) [nM] | GI50 (HT29 colon) [nM]
C=C(C)c1nc(Oc2ccccc2)nc(Oc2ccccc2)n1 | 31.7 | 29.8 | 30.3 | 8.18 | 24.4 | 32.8 | 22.3 | 36.7 | 24.5 | 12.9 |  |  |  |  |  |  |  |  |  | 
CC(C)c1ccc2c(c1)CCC1C2CCCC1(C)NCc1ccccc1 (stereo not given) | 19.8 | 6.17 | 27.6 | 2.01 | 28.9 | 24.6 | 9.64 | 18.4 | 21.3 | 2.7 | 7260 | 2170 | 14300 | 608 | 13500 | 10700 | 2790 | 5380 | 8770 | 780
CCOC(=O)C#Cc1c(C(=O)OCC)nnn1[C@@H]1O[C@H](COC)[C@@H](OC)[C@H]1OC | 4.43 | > 100 | > 100 | 32.8 | 21.7 | 32.9 | 24.5 | 3.18 | 24.2 | 6.49 | 2020 | > 100000 | 67500 | 18000 | 6940 | 16300 | 12100 | 1650 | 11900 | 2860
CN1CCN(C(=O)/C=C/c2ccc([N+](=O)[O-])o2)CC1 | 27.9 | > 100 | > 100 | 38.1 | > 100 | 87.6 | 14.9 | 60 | 75.8 | 37 | 14200 | 27900 | 29000 | 18200 | 18500 | 23200 | 3120 | 22400 | 21600 | 9810
COc1cc(/C=C/c2cc(/C=C/c3ccc(O)c(OC)c3)n(C(=O)Nc3ccc(C)cc3)n2)ccc1O | 5.95 | 6.34 | 1.79 | 9.46 | 2.59 | 5.02 | 0.391 | 4.82 | 1.36 | 5.19 | 697 | 1710 | 451 | 2120 | 465 | 992 | 115 | 1190 | 321 | 1930
CN(C)CCCC1(c2ccc(F)cc2)OCc2cc(-c3csc4ccccc34)ccc21 (stereo not given) | 3.28 | 3.04 | 3.12 | 3.14 | 3.84 | 2.89 | 3.19 | 3.52 | 2.8 | 3.46 | 1680 | 1640 | 1610 | 1650 | 1870 | 1510 | 1730 | 1800 | 1350 | 1550
Cc1cccc(Oc2ccc(Nc3ncnc4ccc(NC(=O)CN(C)C)cc34)cc2Cl)c1 | 5.59 | 3.2 | 7.24 | 3.19 | 11.3 | 4.19 | 3.14 | 28.3 | 5.05 | 3.77 | 1700 | 1660 | 828 | 1600 | 2720 | 512 | 1670 | 11900 | 2010 | 1760
C/C(=C\c1csc(C)n1)[C@@H]1C[C@@H]2O[C@]2(C)CCC[C@H](C)[C@H](O)[C@@H](C)C(=O)C(C)(C)[C@@H](O)CC(=O)N1 | 0.000821 | 0.000423 | 0.0595 | 0.000243 | 0.000184 | 0.000626 | 0.000143 | 0.000652 | 0.048 | 0.000537 | 0.318 | 0.156 | 4.77 | 0.121 | 0.112 | 0.337 | 0.0655 | 0.388 | 1.61 | 0.0823
CCCCCCCCCCCCOC1C(C(COC2OC(C(O)CO)C3OC(C)(C)OC23)OC(=O)Nc2ccccc2)OC2OC(C)(C)OC21 (stereo not given) | 17.8 | 17.7 | 30 | 10.4 | 26.2 | 22.2 | 21.6 | 26.4 | 16.9 | 4.68 | 5850 | 5470 | 15600 | 5390 | 8240 | 9940 | 7720 | 11800 | 5200 | 2110
CC[C@]12C=CCN3CC[C@@]4(c5ccc(OC)cc5N(C)[C@H]4[C@@](O)(C(=O)OC)[C@@H]1OC(=O)CCCN1CCN(CCCC(=O)O[C@@H]4[C@]5(CC)C=CCN6CC[C@@]7(c8ccc(OC)cc8N(C)[C@H]7[C@@]4(O)C(=O)OC)[C@@H]65)CC1)[C@@H]32 | 2.44 | 3.16 | 3.63 | 3.26 | 3.36 | 2.97 | 2.63 | 3.47 | 1.95 | 1.2 | 1110 | 1740 | 2070 | 1660 | 1550 | 1440 | 1250 | 1730 | 564 | 324
O=S(=O)(Nc1ccccc1)c1ccc(C2CC3(Cl)C(Cl)=C(Cl)C2(Cl)C3(Cl)Cl)cc1 (stereo not given) | 11.1 | 5.97 | 10.1 | 3.46 | 10.9 | 8.37 | 5.44 | 4.47 | 9.09 | 5.41 | 3370 | 2210 | 3450 | 1810 | 3520 | 3020 | 2340 | 1870 | 2610 | 2370
CNCc1cccc2c1OCCOCCOCCNS(=O)(=O)c1ccc(cc1)-c1cnc(N)c(n1)C(=O)N2 | 6.42 | 3.39 | 8.01 | 4.69 | 10.4 | 11.2 | 2.74 | 8.09 | 5.26 | 3.76 | 1500 | 1760 | 543 | 1790 | 1610 | 2830 | 1350 | 2210 | 353 | 1310
